Laboratory results as given in patent US20240208992A1, “MACROCYCLES AS CFTR MODULATORS” (Idorsia Pharmaceuticals Ltd, priority 2021, published 2024).

Target: human F508del-CFTR (Homo sapiens, UniProt P13569, DEL508-508)
Experiment: F508del-CFTR cell surface expression (corrector activity), DiscoveRx ß-galactosidase complementation chemiluminescence assay in recombinant U2OS cell line;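 further: U2OS cells co-expressing ProLink-tagged F508del-CFTR and a membrane-anchored enzyme acceptor, where more surface CFTR restores β-galactosidase activity measured by chemiluminescence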
Details: U2OS cell line, 16h compound incubation; for EC50: EC50, F508del-CFTR cell surface expression, geomean values; for Emax: U2OS, in relation to the Emax of the corrector lumacaftor (=100%), arithmetic mean values

Sequence of human F508del-CFTR (P13569 with tags, fused parts or gaps DEL508-508): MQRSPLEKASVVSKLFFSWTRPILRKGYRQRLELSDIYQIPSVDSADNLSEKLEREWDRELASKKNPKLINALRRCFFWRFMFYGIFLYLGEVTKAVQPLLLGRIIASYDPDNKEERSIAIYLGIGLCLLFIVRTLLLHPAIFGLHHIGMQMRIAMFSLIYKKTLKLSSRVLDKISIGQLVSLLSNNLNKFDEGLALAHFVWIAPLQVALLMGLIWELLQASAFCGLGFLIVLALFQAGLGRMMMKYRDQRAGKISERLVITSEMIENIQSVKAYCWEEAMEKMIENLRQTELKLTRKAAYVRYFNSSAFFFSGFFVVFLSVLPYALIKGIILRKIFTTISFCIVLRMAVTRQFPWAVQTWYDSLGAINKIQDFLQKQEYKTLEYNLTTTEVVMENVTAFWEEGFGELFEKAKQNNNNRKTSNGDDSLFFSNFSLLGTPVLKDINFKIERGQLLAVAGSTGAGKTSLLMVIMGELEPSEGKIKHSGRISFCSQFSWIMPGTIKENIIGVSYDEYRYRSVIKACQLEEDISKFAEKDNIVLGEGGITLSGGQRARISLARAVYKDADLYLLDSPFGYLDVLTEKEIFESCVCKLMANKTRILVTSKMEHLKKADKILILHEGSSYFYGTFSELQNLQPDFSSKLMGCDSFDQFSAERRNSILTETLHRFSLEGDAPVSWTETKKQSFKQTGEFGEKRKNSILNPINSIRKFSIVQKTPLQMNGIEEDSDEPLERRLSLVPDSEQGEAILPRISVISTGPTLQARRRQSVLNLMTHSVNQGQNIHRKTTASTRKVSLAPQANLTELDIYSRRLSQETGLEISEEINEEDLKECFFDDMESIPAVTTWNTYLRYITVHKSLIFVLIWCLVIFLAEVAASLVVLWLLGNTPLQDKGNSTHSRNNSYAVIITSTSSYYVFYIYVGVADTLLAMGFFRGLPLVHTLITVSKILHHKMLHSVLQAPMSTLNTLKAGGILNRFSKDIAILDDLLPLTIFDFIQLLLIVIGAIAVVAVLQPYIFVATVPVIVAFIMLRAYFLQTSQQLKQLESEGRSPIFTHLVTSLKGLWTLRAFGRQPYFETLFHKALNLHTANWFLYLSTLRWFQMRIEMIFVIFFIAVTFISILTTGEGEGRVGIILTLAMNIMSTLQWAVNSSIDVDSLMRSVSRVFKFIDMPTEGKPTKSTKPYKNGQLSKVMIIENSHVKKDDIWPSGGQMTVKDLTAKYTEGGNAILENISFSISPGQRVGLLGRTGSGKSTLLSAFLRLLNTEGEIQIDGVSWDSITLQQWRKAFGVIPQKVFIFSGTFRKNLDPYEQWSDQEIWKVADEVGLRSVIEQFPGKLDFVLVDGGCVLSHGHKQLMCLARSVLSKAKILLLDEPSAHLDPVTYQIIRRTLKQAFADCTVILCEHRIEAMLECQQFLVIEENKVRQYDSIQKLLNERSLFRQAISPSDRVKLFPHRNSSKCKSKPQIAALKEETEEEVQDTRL

## CN1C(=O)C[C@@H](C(=O)NCCc2ccc3c(c2)OCO3)NC(=O)c2c(ccc3ccccc23)OC[C@@H](Cc2ccccc2)NC(=O)CN(C[C@H]2CCCCO2)C(=O)[C@@H]1CC1CC1 [Example 340, (3S,7S,13R)-N-(2-(benzo[d][1,3]dioxol-5-yl)ethyl)-13-benzyl-7-(cyclopropylmethyl)-6-methyl-1,5,8,11-tetraoxo-9-(((R)-tetrahydro-2H-pyran-2-yl)methyl)-1,2,3,4,5,6,7,8,9,10,11,12,13,14-tetradecahydronaphtho[1,2-p][1]oxa[4,7,10,14]tetraazacycloheptadecine-3-carboxamide]
  EC50: 278 nM
  Emax: 139%

## CN1C(=O)C[C@@H](C(=O)NCCc2ccc3c(c2)OCO3)NC(=O)c2c(ccc3ccccc23)OC[C@@H](Cc2ccccc2)NC(=O)CN(CCC2CCCCC2)C(=O)[C@@H]1CC1CC1 [Example 341, (3S,7S,13R)-N-(2-(benzo[d][1,3]dioxol-5-yl)ethyl)-13-benzyl-9-(2-cyclohexylethyl)-7-(cyclopropylmethyl)-6-methyl-1,5,8,11-tetraoxo-1,2,3,4,5,6,7,8,9,10,11,12,13,14-tetradecahydronaphtho[1,2-p][1]oxa[4,7,10,14]tetraazacycloheptadecine-3-carboxamide]
  EC50: 144 nM
  Emax: 237%

## COc1cccc(CCNC(=O)[C@@H]2CC(=O)N(C)[C@@H](CC(C)C)C(=O)N3CCCC[C@H]3C(=O)N[C@H](Cc3ccccc3)COc3ccc4ncoc4c3C(=O)N2)c1 [Example 342, (8S,12S,18aS,21R)-21-benzyl-12-isobutyl-N-(3-methoxyphenethyl)-11-methyl-6,10,13,19-tetraoxo-6,7,8,9,10,11,12,13,16,17,18,18a,19,20,21,22-hexadecahydro-15H-oxazolo[4′,5′:5,6]benzo[1,2-p]pyrido[2,1-f][1]oxa[4,7,10,14]tetraazacycloheptadecine-8-carboxamide]
  EC50: 464 nM
  Emax: 128%

## COc1cccc(CCNC(=O)[C@@H]2CC(=O)N(C)[C@@H](CC(C)C)C(=O)N3CCCC[C@@H]3C(=O)N[C@H](Cc3ccccc3)COc3ccc4ncoc4c3C(=O)N2)c1 [Example 343, (8S,12S,18aR,21R)-21-benzyl-12-isobutyl-N-(3-methoxyphenethyl)-11-methyl-6,10,13,19-tetraoxo-6,7,8,9,10,11,12,13,16,17,18,18a,19,20,21,22-hexadecahydro-15H-oxazolo[4′,5′:5,6]benzo[1,2-p]pyrido[2,1-f][1]oxa[4,7,10,14]tetraazacycloheptadecine-8-carboxamide]
  EC50: 332 nM
  Emax: 270%

## Cc1cc(CCNC(=O)[C@@H]2CC(=O)N(C)[C@@H](CC(C)C)C(=O)N(CCC3CCCCC3)CC(=O)N[C@H](Cc3ccccc3)COc3cnc4ccccc4c3C(=O)N2)on1 [Example 344, (3S,7S,13R)-13-benzyl-9-(2-cyclohexylethyl)-7-isobutyl-6-methyl-N-(2-(3-methylisoxazol-5-yl)ethyl)-1,5,8,11-tetraoxo-1,2,3,4,5,6,7,8,9,10,11,12,13,14-tetradecahydro-[1]oxa[4,7,10,14]tetraazacycloheptadecino[17,16-c]quinoline-3-carboxamide]
  EC50: 126 nM
  Emax: 284%

## CC(C)C[C@H]1C(=O)N(CCC2CCCCC2)CC(=O)N[C@H](Cc2ccccc2)COc2ccc3c(c2C(=O)N[C@H](C(=O)NCCc2ccc4c(c2)OCO4)CC(=O)N1C)OCO3 [Example 345, (8R,14S,18S)-N-(2-(benzo[d][1,3]dioxol-5-yl)ethyl)-8-benzyl-12-(2-cyclohexylethyl)-14-isobutyl-15-methyl-10,13,16,20-tetraoxo-7,8,9,10,11,12,13,14,15,16,17,18,19,20-tetradecahydro-[1,3]dioxolo[4′,5′:5,6]benzo[1,2-p][1]oxa[4,7,10,14]tetraazacycloheptadecine-18-carboxamide]
  EC50: 95 nM
  Emax: 268%

## COc1cccc(CCNC(=O)[C@@H]2CC(=O)N(C)[C@@H](CC(C)C)C(=O)N(CCC3CCCCC3)CC(=O)N[C@H](Cc3ccccc3)COc3ccc4c(c3C(=O)N2)OCO4)c1 [Example 346, (8R,14S,18S)-8-benzyl-12-(2-cyclohexylethyl)-14-isobutyl-N-(3-methoxyphenethyl)-15-methyl-10,13,16,20-tetraoxo-7,8,9,10,11,12,13,14,15,16,17,18,19,20-tetradecahydro-[1,3]dioxolo[4′,5′:5,6]benzo[1,2-p][1]oxa[4,7,10,14]tetraazacycloheptadecine-18-carboxamide]
  EC50: 106 nM
  Emax: 282%

## [2H]C([2H])([2H])Oc1cccc(CCNC(=O)[C@@H]2CC(=O)N(C)[C@@H](CC(C)C)C(=O)N(CCC3CCCCC3)CC(=O)N[C@H](Cc3ccccc3)COc3ccc4c(c3C(=O)N2)OCO4)c1 [Example 347, (8R,14S,18S)-8-benzyl-12-(2-cyclohexylethyl)-14-isobutyl-N-(3-(methoxy-d3)phenethyl)-15-methyl-10,13,16,20-tetraoxo-7,8,9,10,11,12,13,14,15,16,17,18,19,20-tetradecahydro-[1,3]dioxolo[4′,5′:5,6]benzo[1,2-p][1]oxa[4,7,10,14]tetraazacycloheptadecine-18-carboxamide]
  EC50: 131 nM
  Emax: 282%

## COc1cccc(CCNC(=O)[C@@H]2CC(=O)N(C)[C@@H](CC(C)C)C(=O)N3CCN(C4CC4)C[C@@H]3C(=O)N[C@H](Cc3ccccc3)COc3ccc4ncn(C)c4c3C(=O)N2)c1 [Example 348, (8S,12S,18aR,21R)-21-benzyl-17-cyclopropyl-12-isobutyl-N-(3-methoxyphenethyl)-5,11-dimethyl-6,10,13,19-tetraoxo-6,7,8,9,10,11,12,13,16,17,18,18a,19,20,21,22-hexadecahydro-5H,15H-imidazo[4′,5′:5,6]benzo[1,2-p]pyrazino[2,1-f][1]oxa[4,7,10,14]tetraazacycloheptadecine-8-carboxamide]
  EC50: 340 nM
  Emax: 155%

## CC(C)C[C@H]1C(=O)N(C)CC(=O)N[C@H](Cc2ccccc2)COc2cnc3c(F)cccc3c2C(=O)N[C@H](C(=O)NCCc2ccc3c(c2)OCO3)CC(=O)N1C [Example 349, (3S,7S,13R)-N-(2-(benzo[d][1,3]dioxol-5-yl)ethyl)-13-benzyl-18-fluoro-7-isobutyl-6,9-dimethyl-1,5,8,11-tetraoxo-1,2,3,4,5,6,7,8,9,10,11,12,13,14-tetradecahydro-[1]oxa[4,7,10,14]tetraazacycloheptadecino[17,16-c]quinoline-3-carboxamide]
  EC50: 597 nM
  Emax: 258%

## COc1cccc(CCNC(=O)[C@@H]2CC(=O)N(C)[C@@H](CC(C)C)C(=O)N(C)CC(=O)N[C@H](Cc3ccccc3)COc3cnc4c(F)cccc4c3C(=O)N2)c1 [Example 350, (3S,7S,13R)-13-benzyl-18-fluoro-7-isobutyl-N-(3-methoxyphenethyl)-6,9-dimethyl-1,5,8,11-tetraoxo-1,2,3,4,5,6,7,8,9,10,11,12,13,14-tetradecahydro-[1]oxa[4,7,10,14]tetraazacycloheptadecino[17,16-c]quinoline-3-carboxamide]
  EC50: 546 nM
  Emax: 299%

## COc1cccc(CCNC(=O)[C@@H]2CC(=O)N(C)[C@@H](CC(C)C)C(=O)N3CCCC[C@@H]3C(=O)N[C@H](Cc3ccccc3)COc3ccc4oc(C)nc4c3C(=O)N2)c1 [Example 351, (8S,12S,18aR,21R)-21-benzyl-12-isobutyl-N-(3-methoxyphenethyl)-4,11-dimethyl-6,10,13,19-tetraoxo-6,7,8,9,10,11,12,13,16,17,18,18a,19,20,21,22-hexadecahydro-15H-oxazolo[5′,4′:5,6]benzo[1,2-p]pyrido[2,1-f][1]oxa[4,7,10,14]tetraazacycloheptadecine-8-carboxamide]
  EC50: 756 nM
  Emax: 127%

## COc1cccc(CCNC(=O)[C@@H]2CC(=O)N(C)[C@@H](CC(C)C)C(=O)N3CCN(C(C)C)C[C@@H]3C(=O)N[C@H](Cc3ccccc3)COc3ccc4nc(C)oc4c3C(=O)N2)c1 [Example 352, (8S,12S,18aR,21R)-21-benzyl-12-isobutyl-17-isopropyl-N-(3-methoxyphenethyl)-4,11-dimethyl-6,10,13,19-tetraoxo-6,7,8,9,10,11,12,13,16,17,18,18a,19,20,21,22-hexadecahydro-15H-oxazolo[4′,5′:5,6]benzo[1,2-p]pyrazino[2,1-f][1]oxa[4,7,10,14]tetraazacycloheptadecine-8-carboxamide]
  EC50: 297 nM
  Emax: 262%

## COc1cccc(CCNC(=O)[C@@H]2CC(=O)N(C)[C@@H](CC(C)C)C(=O)N3CCN(C(C)C)C[C@@H]3C(=O)N[C@H](Cc3ccccc3)COc3ccc4ncn(C)c4c3C(=O)N2)c1 [Example 353, (8S,12S,18aR,21R)-21-benzyl-12-isobutyl-17-isopropyl-N-(3-methoxyphenethyl)-5,11-dimethyl-6,10,13,19-tetraoxo-6,7,8,9,10,11,12,13,16,17,18,18a,19,20,21,22-hexadecahydro-5H,15H-imidazo[4′,5′:5,6]benzo[1,2-p]pyrazino[2,1-f][1]oxa[4,7,10,14]tetraazacycloheptadecine-8-carboxamide]
  EC50: 513 nM
  Emax: 177%

## COCCN1CCN2C(=O)[C@H](CC(C)C)N(C)C(=O)C[C@@H](C(=O)NCCc3cccc(OC)c3)NC(=O)c3c(ccc4ccccc34)OC[C@@H](Cc3ccccc3)NC(=O)[C@H]2C1 [Example 354, (4aR,7R,18S,22S)-7-benzyl-22-isobutyl-3-(2-methoxyethyl)-N-(3-methoxyphenethyl)-21-methyl-5,16,20,23-tetraoxo-2,3,4,4a,5,6,7,8,16,17,18,19,20,21,22,23-hexadecahydro-1H-naphtho[1,2-p]pyrazino[2,1-f][1]oxa[4,7,10,14]tetraazacycloheptadecine-18-carboxamide]
  EC50: 231 nM
  Emax: 321%
